The text below walks through data of patent EP0112332B1, “VITAMIN D GLYCOSIDES” (THE GENERAL HOSPITAL CORPORATION, priority 1982, dated 1984).

For experiment [1] the following is noted: in vivo, dosed parenterally and daily; cited from earlier work.
Experiment [2] has as its system Intestinal calcium transport. Put plainly: Intestinal calcium transport by the everted gut sac technique after oral dosing of vitamin D deficient rats. Format: in vivo. The settings on record: for I/O (inside Ca⁴⁵/outside Ca⁴⁵) ± S.D.: 24 hours later, vehicle 1.6 ± 0.3; for stimulating intestinal calcium absorption (result in words): summary of the table data, oral dosing of rats. The method, then: (§1) The vitamin D₃, 3β-glucoside vitamin D₃, 3α-glucoside and the vitamin D₃, 3β glucoside acetate were tested for biological activity. Male weanling rats from Holtzmann Company, Madison, Wisconsin, U.S.A., were fed a vitamin D deficient diet that was adequate in phosphorus and low in calcium (0.02%) for 3-1/2 weeks. Groups of five animals received orally either 4 µg, 1 µg, 0.5 µg, 0.25 µg of Vitamin D₃ -3β- glucoside, 1 µg Vitamin D₃ -3α- glucoside or 2 µg Vitamin D₃ -3β- glucoside acetate in 50 µl of 95% ethanol or vehicle alone. 24 hours later the animals were sacrificed and the small intestine and blood were collected. Intestinal calcium transport studies were performed by the everted gut sac technique, and blood was used for serum calcium determinations.

Experiment [3] can be described thus: Serum calcium determination (bone calcium mobilization) after oral dosing of vitamin D deficient rats on low calcium diet. Format: in vivo. The procedure:
as §1

For `C=C1/C(=C\C=C2/CCC[C@]3(C)[C@@H]([C@H](C)CCCC(C)(C)O)CC[C@@H]23)C[C@@H](O)C[C@@H]1O` [1α, 25-(OH)₂D₃], in experiment [1], the “times more potent than D₃” value is listed as 5-10 times and the “times more potent than the monohydroxy form of the vitamin” value is reported as 2-5 times.
Consider `C=C1CC[C@H](O[C@@H]2O[C@H](COC(C)=O)[C@@H](OC(C)=O)[C@H](OC(C)=O)[C@H]2OC(C)=O)C/C1=C/C=C1\CCC[C@]2(C)[C@@H]([C@H](C)CCCC(C)C)CC[C@@H]12` [Vitamin D₃ 3β- glucoside acetate, 9,10-secocholesta-5,7,10(19)-trien-3β-yl-2',3',4',6'-tetra-O-acetyl -β-D-glucopyranoside], for which the “I/O (inside Ca⁴⁵/outside Ca⁴⁵) ± S.D.” value in experiment [2] (2 µg orally in 50 µl of 95% ethanol) stood at 1.7 ± 0.2. Besides, the “stimulating intestinal calcium absorption (result in words)” value in experiment [2] is “appears inactive”.
Consider `C=C1CC[C@H](O[C@@H]2O[C@H](CO)[C@@H](O)[C@H](O)[C@H]2O)C/C1=C/C=C1\CCC[C@]2(C)[C@@H]([C@H](C)CCCC(C)C)CC[C@@H]12` [Vitamin D₃ 3β- glucoside, 9,10-secocholesta-5,7,10(19)triene-3β-yl -β-D-glucopyranoside], for which the “Serum Calcium ± S.D.” value in experiment [3] (4 µg orally in 50 µl of 95% ethanol, 24 hours later, vehicle 4.3 ± 0.2) amounted to 5.3 ± 0.2. Besides, in experiment [3] (summary of the table data, oral dosing of rats), the “stimulating bone calcium mobilization (result in words)” value is “capable of stimulating”. Besides, the “I/O (inside Ca⁴⁵/outside Ca⁴⁵) ± S.D.” value in experiment [2] (0.25 µg orally in 50 µl of 95% ethanol) is 2.0 ± 0.2; in experiment [2] (0.5 µg orally in 50 µl of 95% ethanol), 2.5 ± 0.2; in experiment [2] (1 µg orally in 50 µl of 95% ethanol) it was 3.6 ± 0.3; in experiment [2] (4 µg orally in 50 µl of 95% ethanol, male weanling rats, vitamin D deficient low calcium diet) it was 3.9 ± 0.2. In experiment [2], the “stimulating intestinal calcium absorption (result in words)” value is recorded as “capable of stimulating intestinal calcium absorption”.
